What was measured:
[1] = system: BGC-823-SLC cells (GCSC); assay: IC50 assay (MTS cell viability); format: cell-based; settings: 48 h
Description: (§1) Four PDC lines (T12-1, T12-2, T2-4, T19-1) obtained from the Beijing Tiantan Hospital[53] and three GSC lines (GSC2, U87MG-SLC, U251-SLC) were established and verified in our previous work.[17] Two GCSC lines were kindly provided by Dr. Ran.[54] These cell lines were cultured in neurobasal medium (Gibco) containing 2% B27 (Gibco), 1% 100 × Antibiotic-Antimycotic (Gibco), 2 mmol/L L-glutamine (catalog SH30034.01, HyClone), 20 ng/mL bFGF (catalog 100-18B-50UG, PeproTech), 20 ng/mL EGF (catalog AF-100-15-100UG, PeproTech), and 10 μg/mL heparin (Sigma‒Aldrich). H1-NSCs obtained from D.Q. Pei’s laboratory (Guangzhou Institutes of Biomedicine and Health, Chinese Academy of Sciences, Guangzhou, China), were cultured in the same medium as the PDCs, with the addition of 1% N-2 supplement (Gibco, Thermo Fisher Scientific). The human astrocyte (HA) cell line was purchased from ScienCell and cultured in commercial astrocyte medium (catalog 1801, ScienCell) supplemented with 1% AGS (ScienCell), 2% FBS (ScienCell) and 1% P/S solution (ScienCell). Regarding the GC cell lines, U87MG cells were purchased from the American Type Culture Collection (ATCC), and U251 cells were purchased from the Cell Center of Peking Union Medical College. The GC cells were cultured in DMEM (Gibco) supplemented with 10% FBS (ScienCell) and 1% 100 × Antibiotic-Antimycotic.
(§2) Cells were seeded in 96-well plates and treated with 0, 0.03, 0.1, 0.3, 1, 3, 10, or 30 μM GA-amide (Santa Cruz) in triplicate. After 48 h of incubation, cell viability was quantified using the MTS assay, and the GA-amide cytotoxicity curve was estimated using GraphPad Prism.

[2] = system: U251 cells (GC); assay: IC50 assay (MTS cell viability); format: cell-based; settings: Homo sapiens, U-251, 48 h
Description: as §1, §2

[3] = system: T19-1 cells (PDC); assay: IC50 assay (MTS cell viability); format: cell-based; settings: Homo sapiens, T19-1, PDC, 48 h
Description: as §1, §2

[4] = system: HA (human astrocyte) cells; assay: IC50 assay (MTS cell viability); format: cell-based; settings: normal cells (NC), 48 h
Description: as §1, §2

[5] = system: T2-4 cells (PDC); assay: IC50 assay (MTS cell viability); format: cell-based; settings: Homo sapiens, T2-4, PDC, 48 h
Description: as §1, §2

[6] = system: U251-SLC cells (GSC); assay: IC50 assay (MTS cell viability); format: cell-based; settings: 48 h
Description: as §1, §2

[7] = system: U87MG cells (GC); assay: IC50 assay (MTS cell viability); format: cell-based; settings: Homo sapiens, U-87 MG, 48 h
Description: as §1, §2

[8] = system: GSC2 cells (GSC); assay: IC50 assay (MTS cell viability); format: cell-based; settings: 48 h
Description: as §1, §2

[9] = system: U87MG-SLC cells (GSC); assay: IC50 assay (MTS cell viability); format: cell-based; settings: 48 h
Description: as §1, §2

[10] = system: T12-1 cells (PDC); assay: IC50 assay (MTS cell viability); format: cell-based; settings: Homo sapiens, T12-1, PDC, 48 h
Description: as §1, §2

[11] = system: T12-2 cells (PDC); assay: IC50 assay (MTS cell viability); format: cell-based; settings: Homo sapiens, T12-2, PDC, 48 h
Description: as §1, §2

[12] = system: SNU5-SLC cells (GCSC); assay: IC50 assay (MTS cell viability); format: cell-based; settings: 48 h
Description: as §1, §2

[13] = system: H1P56NSC (H1-NSCs); assay: IC50 assay (MTS cell viability); format: cell-based; settings: Homo sapiens, normal cells (NC), 48 h
Description: as §1, §2

[14] = system: GSC2 subcutaneous xenograft; assay: GSC2-derived subcutaneous xenograft model; format: in vivo, nude mice; settings: 2 mg/kg i.p. once daily for 11 days
Description: (§3) Fig. 3 The inhibitory effects of GA-amide in glioma stem cell-derived mouse models and transgenic mouse models. a, b GSC2 cells were implanted s.c. into nude mice. Mice were treated with control (DMSO) (n = 7) or GA-amide (2 mg/kg) (n = 8) via i.p. injection once daily for 11 days, after which a photograph (a) was taken to show the tumor volume, and the tumor volume was calculated by a modified ellipsoid formula in (b). c, d GSC2 cells were implanted intracranially into nude mice. Mice were injected i.v. with control (n = 8) or 1 mg/kg GA-amide (n = 8) daily for 13 days, the Mantel‒Cox log–rank test was used for analysis, and the relative survival curves are shown in (c). The body weights are shown in (d). e In vivo efficacy studies of GA-amide using transgenic mouse models. Glioma was induced in transgenic C57BL/6 mice by injection of pTomo-Ras-sip53 lentivirus, and the strategy is shown. f, g MRI analysis was used to group mice into the control (n = 7) and GA-amide-treated groups (n = 8) before treatment. The statistical results are shown in (f), and representative MRI images are shown in (g). […]

[15] = system: hippocampal neurons; settings: cited from earlier work
[16] = system: primary brain tumor (H-RasV12 activated, p53 silenced); assay: Transgenic mouse glioma model (pTomo-Ras-sip53 lentivirus); format: in vivo, C57BL/6 mice; settings: 1 mg/kg i.v. daily for 11 days
Description: as §3

Q: What does the source list for `CC(C)=CCC[C@]1(C)C=Cc2c(O)c3c(c(CC=C(C)C)c2O1)O[C@]12C(=C[C@@H]4CC1C(C)(C)O[C@@]2(C/C=C(/C)C(N)=O)C4=O)C3=O` [GA-amide, gambogic amide]?
A: IC50 [1]: 870 nM; IC50 [2]: 168 nM; IC50 [3]: 277 nM; IC50 [4]: 1030 nM; IC50 [5]: 167 nM; IC50 [6]: 214 nM; IC50 [7]: 231 nM; IC50 [8]: 133 nM; IC50 [9]: 399 nM; IC50 [10]: 249 nM; IC50 [11]: 286 nM; IC50 [12]: 962 nM; IC50 [13]: 941 nM; tumor growth [14]: significantly inhibited the growth of tumors; toxicity in vitro ([15]; 0.5 μM): did not display any toxicity in vitro; concentrations with protective effect on hippocampal neurons against glutamate-triggered apoptosis ([15]; also induced neurite outgrowth in PC12 cells): 10 to 50 nM; Ki67 and CD133 expression in tumor sections [16]: lower expression of the proliferation marker Ki67; tumor size by MRI versus control [16]: significantly smaller compared to the control mice
